# pIC50: −log10 of the molar value.
# How the values were obtained:
# [1] = molecular target: T1, 5-HT1A receptors (Rattus norvegicus, UniProt P19327); experiment: 8-OH DPAT cue agonism in rats (drug discrimination); format: in vivo, male Wistar rats; parameters: agonist effects of a test compound on 5-HT1A receptors in vivo; from tissue; host or cells: living male Wistar rats (endogenous receptor, in vivo); conditions: sc, read-out: 8-OH DPAT Cue Agonism ED50, rats, s.c., usually 30 or 45 min before test
# T1 sequence (P19327 1-422): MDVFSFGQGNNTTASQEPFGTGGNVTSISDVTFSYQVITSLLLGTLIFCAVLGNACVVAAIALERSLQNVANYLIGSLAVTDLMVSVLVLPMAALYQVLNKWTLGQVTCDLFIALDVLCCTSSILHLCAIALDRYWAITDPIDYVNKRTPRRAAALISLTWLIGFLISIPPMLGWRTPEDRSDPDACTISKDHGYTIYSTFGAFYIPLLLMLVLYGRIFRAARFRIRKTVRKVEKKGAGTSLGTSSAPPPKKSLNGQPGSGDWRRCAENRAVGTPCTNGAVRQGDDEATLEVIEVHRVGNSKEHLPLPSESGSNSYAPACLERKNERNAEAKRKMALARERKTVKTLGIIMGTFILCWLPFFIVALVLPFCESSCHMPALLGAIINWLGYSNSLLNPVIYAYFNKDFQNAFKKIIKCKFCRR
# Method: 8-OH DPAT Cue Agonisme in Rats
# This test model is used to determine the agonist effects of a test compound on 5-HT1A receptors in vivo. A related method is described by Tricklebank, M. D., et al, Eur. J. Pharmacol., 1987, 133, 47-56; Arnt, J. Pharmacology & Toxicology, 1989, 64, 165.
# Male Wistar rats are trained to discriminate between 8-OH-DPAT (0.4 mg/kg, i.p., 15 min pretreatment) and physiological saline in operant chambers equipped with two response levers. Between the levers a dipper is placed, where water rewards (0.1 ml) are presented. The rats are water deprived for at least 24 h and work in a fixed ratio (FR) schedule (final FR=32).
# Following 8-OH-DPAT administration responding is reinforced only on a designated (drug) lever, whereas responding on the opposite lever has no consequences. Following saline administration responding is reinforced on the lever opposite to the drug lever. Drug and saline trials alternate randomly between days. The level of s discrimination occuracy is expressed as the per cent drug responses and is calculated as the number of correct responses ×100 divided by the sum of the correct and incorrect responses before the first reward. The time to the first reward is also recorded as a measure of reaction time. When stable occuracy (mean correst responding=90%; individual rats at least 75% correct responding) is obtained test sessions are included between training days. Test compound is injected s.c. usually 30 min or 45 min, respectively, before beginning of the test. The test trial is terminated when a total of 32 responses are made on either lever or when 20 min have elapsed. No reward is given and the rats have free access to water for 20-30 min after the test. The effects are expressed as per cent drug responding. Only results from rats making at least 10 responses on one lever are included in data analysis. Furthermore, only test sessions in which at least half of the rats respond are included.
# The per cent inhibition of drug response obtained for each dose of test compound is used to calculate ED50 values by log-probit analysis.
# [2] = molecular target: T1, 5-HT1A receptors; experiment: Inhibition of 3H-8-OH-DPAT binding to serotonin 5-HT1A receptors in rat brain in vitro; parameters: 5-HT1A receptors in membranes from rat brain minus cerebellum; from tissue; host or cells: brain minus cerebellum of male Wistar (Mol:Wist) rats, crude membranes; species or system rat (male Wistar); conditions: 3H 8-OH DPAT binding IC50, 1 nM 3H-8-OH-DPAT, rat brain minus cerebellum membranes, 37° C., 15 min
# Method: Male Wistar (Mol:Wist) rats (125-250 g) are sacrificed and the brain is dissected and weighed. The brain tissue minus cerebellum is homogenized (Ultra Turrax, 20 sec) in 10 ml of ice cold 50 nM Tris buffer pH 8.0 (at 25° C.) containing 120 mM NaCl, 4 mM CaCl2 and 4 mM MgCl2. The homogenate is centrifuged at 20,000 g for 10 min at 4° C. The pellet is homogenized in 10 ml of buffer and incubated at 37° C. for 10 min. The homogenate is centrifuged as above and the pellet is homogenized in 100 vol (w/v) ice cold buffer containing 10 μM of pargyline.
# Incubation tubes kept on ice in triplicate receive 100 μl of drug solution in water (or water for total binding) and 1000 μl of tissue suspension (final tissue content corresponds to 10 mg original tissue). […] After incubation for 15 min the samples are filtered under vacuum (0-50 mBar) through Whatman GF/F filters (25 mm). The tubes are rinsed with 5 ml ice cold 0.9% NaCl which is then poured on the filters. Thereafter, the filters are washed with 2×5 ml 0.9% NaCl. The filters are placed in counting vials and 4 ml of appropriate scintillation fluid (e.g. Picofluor™ 15) are added. After shaking for 1 h and storage 2 h in the dark the content of radioactivity is determined by liquid scintillation counting. Specific binding is obtained by subtracting the nonspecific binding in the presence of 10 μM of 5-HT.
# For determination of the inhibition of binding five concentrations of drugs covering 3 decades are used.
# The IC50 -value is determined as the concentration, at which the binding is 50% of the total binding in control samples minus the nonspecific binding in the presence of 10 μM of 5-HT.
# [3] = clinical studies; Glitz, Pohl, Drugs 1991; cited from earlier work
Structure (SMILES),ED50 [1],pIC50 [2],usefulness in the treatment of anxiety disorders (in words) [3]
"CC(=O)Nc1ccc2c(c1)C(CN(C)CCCCc1c[nH]c3ccccc13)CC2 (centres unmarked) [Compound 13c, 6-Acetylamino-1-[N-[4-(indol-3-yl)butan-1-yl]-N-methylaminomethyl]indan]",0.66 µmol/kg,8.82,–
"CCCN(CCC)CC1CCc2cc(Cl)c(NC(C)=O)cc21 (centres unmarked) [Compound 11a, 6-Acetylamino-5-chloro-1-(N,N-dipropylaminomethyl)indan]",0.26 µmol/kg,7.68,–
"O=C1c2ccccc2S(=O)(=O)N1CCCCN1CCN(c2ncccn2)CC1 [ipsapirone, 2-[4-[4-(2-pyrimidyl)-1-piperazinyl]butyl]-1,2-benzothiazol-3(2H)-one-1,1-dioxide]",–,–,useful in the treatment of anxiety disorders
"CCCN(CCC)CC1CCc2cc(Cl)c(NC(C)=O)cc21 (single isomer, unassigned; (-)) [Compound 11b, (-)-6-Acetylamino-5-chloro-1-(N,N-dipropylaminomethyl)indan]",0.44 µmol/kg,7.82,–
"CCCN(CCC)CC1CCc2ccc(NC(C)=O)cc21 (centres unmarked) [Compound 2a, 6-Acetylamino-1-(N,N-dipropylaminomethyl)indan]",0.01 µmol/kg,9.05,–
"CC(=O)Nc1ccc2c(c1)C(CN(C)CCN1CCNC1=O)CC2 (centres unmarked) [Compound 13d, 6-Acetylamino-1-[N-[2-(2-imidazolidinon-1-yl)ethyl]-N -methylaminomethyl]indan]",0.61 µmol/kg,8.74,–
"CC1(C)CC(=O)N(CCCCN2CCN(c3ncccn3)CC2)C(=O)C1 [gepirone, 4,4-dimethyl-1-[4-[4-(2-pyrimidyl)-1-piperazinyl]butyl]-2,6-piperidinedione]",–,–,useful in the treatment of anxiety disorders

# More lines, in order of rising pIC50 [2], values ahead:
ED50 [1],pIC50 [2],Structure (SMILES),usefulness in the treatment of anxiety disorders (in words) [3]
0.41 µmol/kg,6.96,"CN(C)CC1CCc2ccc(NC=O)cc21 (centres unmarked) [Compound 1b, 1-(N,N-dimethylaminomethyl)-6-formylaminoindan]",–
0.33 µmol/kg,7.38,"O=CNc1ccc2c(c1)C(CN1CCCCC1)CC2 (centres unmarked) [Compound 1c, 6-formylamino-1-(1-piperidinomethyl)indan]",–
0.21 µmol/kg,7.60,"CC(=O)Nc1ccc2c(c1)C(CN(C)C)CC2 (centres unmarked) [Compound 2b, 6-Acetylamino-1-(N,N-dimethylaminomethyl)indan]",–
0.93 µmol/kg,7.80,"CCCN(CCC)CC1CCc2ccc(NS(C)(=O)=O)cc21 (centres unmarked) [Compound 2g, 1-(N,N-dipropylaminomethyl)-6-(methylsulphonylamino)indan]",–
0.42 µmol/kg,8.00,"CCCN(CCC)CC1CCc2ccc(NC(=O)N(C)C)cc21 (centres unmarked) [Compound 4c, 6-(3,3-dimethyl-1-ureido)-1-(N,N-dipropylaminomethyl)indan]",–
2.2 µmol/kg,8.29,"CCCN(CCC)CC1CCc2ccc(NC(=O)c3ccc(F)cc3)cc21 (centres unmarked) [Compound 2c, 1-(N,N-dipropylaminomethyl)-6-(4-fluorobenzoylamino)indan]",–
0.0052 µmol/kg,8.39,"CCCN(CCC)CC1CCc2ccc(NC=O)cc21 (centres unmarked) [Compound 1a, 1-(N,N-dipropylaminomethyl)-6-formylaminoindan]",–
0.046 µmol/kg,8.47,"CCCN(CCC)CC1CSc2ccc(NC=O)cc21 (centres unmarked) [Compound 5a, 3-(N,N-dipropylaminomethyl)-5-formylamino-2,3-dihydrobenzothiophene]",–
0.22 µmol/kg,8.47,"CC(=O)Nc1ccc2c(c1)C(CN(C)CCCCc1ccccc1)CC2 (centres unmarked) [Compound 13b, 6-Acetylamino-1-[N-methyl-N-(4-phenylbutan-1-yl)aminomethyl]indan]",–
0.15 µmol/kg,8.85,"CC(=O)Nc1ccc2c(c1)C(CN(C)CCCCC1CCCCC1)CC2 (centres unmarked) [Compound 13a, 6-Acetylamino-1-[N-(4-cyclohexylbutan-1-yl)-N-methylaminomethyl]indan]",–
